Data: ChEMBL document CHEMBL6103537 (J Med Chem, 2025)
Active and inactive are the calls of the source. The rule behind the calls is not given here.

Legend:
[1] = biological target: T1, Signal transducer and activator of transcription 6 (Homo sapiens, UniProt P42226); test: Binding affinity to N-terminal his6-tgged STAT6 (unknown origin) (113 to 658 residues) assessed as inhibition constant incubated for 1 hr by fluorescence polarization assay
T1 sequence (P42226 whole entry): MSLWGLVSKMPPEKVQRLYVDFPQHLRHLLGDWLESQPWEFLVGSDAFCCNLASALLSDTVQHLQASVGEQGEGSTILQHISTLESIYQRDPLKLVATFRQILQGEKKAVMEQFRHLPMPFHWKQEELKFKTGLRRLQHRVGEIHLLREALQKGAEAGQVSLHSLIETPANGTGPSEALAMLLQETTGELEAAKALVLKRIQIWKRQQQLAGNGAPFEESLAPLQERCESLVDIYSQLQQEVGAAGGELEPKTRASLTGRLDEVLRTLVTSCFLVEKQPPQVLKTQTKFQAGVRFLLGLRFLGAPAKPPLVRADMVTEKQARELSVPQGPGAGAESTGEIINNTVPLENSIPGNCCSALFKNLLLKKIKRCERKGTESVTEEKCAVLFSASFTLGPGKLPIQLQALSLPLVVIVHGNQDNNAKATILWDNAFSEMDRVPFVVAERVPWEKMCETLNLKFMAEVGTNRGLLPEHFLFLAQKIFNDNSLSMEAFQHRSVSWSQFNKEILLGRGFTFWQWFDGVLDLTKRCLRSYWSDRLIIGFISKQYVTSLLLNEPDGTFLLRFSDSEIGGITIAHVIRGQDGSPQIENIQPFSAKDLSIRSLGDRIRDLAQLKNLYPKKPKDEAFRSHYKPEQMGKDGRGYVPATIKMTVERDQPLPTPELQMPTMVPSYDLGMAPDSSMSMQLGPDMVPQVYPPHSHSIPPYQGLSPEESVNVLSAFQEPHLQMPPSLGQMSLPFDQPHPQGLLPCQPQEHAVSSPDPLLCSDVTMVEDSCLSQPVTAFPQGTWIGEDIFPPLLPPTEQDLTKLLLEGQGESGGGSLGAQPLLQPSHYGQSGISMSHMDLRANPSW

[2] = biological target: T2, Signal transducer and activator of transcription 5B (Homo sapiens, UniProt P51692); test: Binding affinity to STAT5B (unknown origin) assessed as inhibition constant incubated for 1 hr by fluorescence polarization assay
T2 sequence (P51692 whole entry): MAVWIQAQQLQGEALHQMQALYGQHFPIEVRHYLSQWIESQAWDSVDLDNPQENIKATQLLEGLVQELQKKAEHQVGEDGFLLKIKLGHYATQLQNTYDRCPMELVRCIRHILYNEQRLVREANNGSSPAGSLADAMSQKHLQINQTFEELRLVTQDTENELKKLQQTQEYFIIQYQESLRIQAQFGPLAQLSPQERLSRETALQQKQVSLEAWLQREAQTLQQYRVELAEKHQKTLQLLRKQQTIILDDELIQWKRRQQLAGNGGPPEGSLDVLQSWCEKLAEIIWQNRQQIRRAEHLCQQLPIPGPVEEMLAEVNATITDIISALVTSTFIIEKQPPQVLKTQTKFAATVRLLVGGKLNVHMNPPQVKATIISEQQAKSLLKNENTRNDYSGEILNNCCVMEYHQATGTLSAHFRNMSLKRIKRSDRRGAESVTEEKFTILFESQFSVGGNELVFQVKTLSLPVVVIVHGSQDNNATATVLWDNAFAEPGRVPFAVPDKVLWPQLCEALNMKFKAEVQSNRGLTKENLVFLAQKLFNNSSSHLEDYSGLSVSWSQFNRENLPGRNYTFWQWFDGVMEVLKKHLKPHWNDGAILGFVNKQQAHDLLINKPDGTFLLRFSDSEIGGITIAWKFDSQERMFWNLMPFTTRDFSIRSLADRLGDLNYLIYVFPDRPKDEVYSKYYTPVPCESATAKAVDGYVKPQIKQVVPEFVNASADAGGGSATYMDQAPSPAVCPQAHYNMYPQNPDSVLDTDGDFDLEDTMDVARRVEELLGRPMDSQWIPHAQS

[3] = biological target: T3, Signal transducer and activator of transcription 5A (Homo sapiens, UniProt P42229); test: Binding affinity to STAT5A (unknown origin) assessed as inhibition constant incubated for 1 hr by fluorescence polarization assay
T3 sequence (P42229 whole entry): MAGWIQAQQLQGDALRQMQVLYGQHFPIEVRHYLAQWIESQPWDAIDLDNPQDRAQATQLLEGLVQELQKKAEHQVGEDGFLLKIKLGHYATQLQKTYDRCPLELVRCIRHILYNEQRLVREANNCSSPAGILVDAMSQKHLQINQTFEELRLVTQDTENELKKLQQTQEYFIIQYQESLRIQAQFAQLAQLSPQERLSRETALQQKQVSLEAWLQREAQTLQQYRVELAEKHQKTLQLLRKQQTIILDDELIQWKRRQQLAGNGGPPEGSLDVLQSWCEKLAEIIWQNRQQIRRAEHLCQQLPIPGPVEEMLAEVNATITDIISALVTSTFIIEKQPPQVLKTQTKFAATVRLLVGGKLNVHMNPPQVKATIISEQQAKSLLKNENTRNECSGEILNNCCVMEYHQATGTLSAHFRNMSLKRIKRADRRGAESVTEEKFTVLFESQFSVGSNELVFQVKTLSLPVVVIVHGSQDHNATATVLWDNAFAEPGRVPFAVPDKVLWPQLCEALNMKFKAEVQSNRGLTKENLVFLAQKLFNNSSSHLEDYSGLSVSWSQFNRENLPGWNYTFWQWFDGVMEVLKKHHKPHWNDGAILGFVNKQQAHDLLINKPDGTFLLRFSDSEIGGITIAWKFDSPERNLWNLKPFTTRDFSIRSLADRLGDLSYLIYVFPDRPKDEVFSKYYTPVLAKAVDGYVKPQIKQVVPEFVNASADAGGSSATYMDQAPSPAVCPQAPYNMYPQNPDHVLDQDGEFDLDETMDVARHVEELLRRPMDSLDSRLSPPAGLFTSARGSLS

[4] = biological target: T4, Protein cereblon/Signal transducer and activator of transcription 6 (Homo sapiens, UniProt P42226+Q96SW2); test: PROTAC activity at STAT6/CRBN in human MV4-11 cells assessed as reduction in STAT6 level at 0.5 uM measured upto 1200 mins by HiBiT bioluminescence assay; assay type: cell-based
[5] = biological target: Protein cereblon/Signal transducer and activator of transcription 3 (Homo sapiens) (UniProt P40763+Q96SW2); test: PROTAC activity at STAT3/CRBN in human PBMC cells assessed as reduction in STAT3 level at 10 uM incubated for 18 hrs by Western blot analysis relative to control; assay type: cell-based
[6] = biological target: T4, Protein cereblon/Signal transducer and activator of transcription 6; test: PROTAC activity at STAT6 at Y641 residue/CRBN in human L-1236 cells assessed as reduction in STAT6 level at 10 uM incubated for 24 hrs by Western blot analysis; assay type: cell-based
[7] = biological target: Protein cereblon/Signal transducer and activator of transcription 4 (Homo sapiens) (UniProt Q96SW2+Q14765); test: PROTAC activity at STAT4/CRBN in human PBMC cells assessed as reduction in STAT4 level at 10 uM incubated for 18 hrs by Western blot analysis relative to control; assay type: cell-based
[8] = biological target: T4, Protein cereblon/Signal transducer and activator of transcription 6; test: PROTAC activity at STAT6/CRBN in human L-1236 cells assessed as reduction in STAT6 level at 10 uM incubated for 24 hrs by Western blot analysis; assay type: cell-based
[9] = biological target: Protein cereblon/Signal transducer and activator of transcription 2 (Homo sapiens) (UniProt Q96SW2+P52630); test: PROTAC activity at STAT2/CRBN in human PBMC cells assessed as reduction in STAT2 level at 10 uM incubated for 18 hrs by Western blot analysis relative to control; assay type: cell-based
[10] = biological target: Protein cereblon/Signal transducer and activator of transcription 5A/Signal transducer and activator of transcription 5B (Homo sapiens) (UniProt P42229+P51692+Q96SW2); test: PROTAC activity at STAT5/CRBN in human PBMC cells assessed as reduction in STAT5 level at 10 uM incubated for 18 hrs by Western blot analysis relative to control; assay type: cell-based
[11] = biological target: T4, Protein cereblon/Signal transducer and activator of transcription 6; test: PROTAC activity at STAT6/CRBN in human MV4-11 cells assessed as reduction in STAT6 level at upto 10 uM incubated for 12 hrs by Western blot analysis; assay type: cell-based
[12] = biological target: Protein cereblon/Signal transducer and activator of transcription 1-alpha/beta (Homo sapiens) (UniProt P42224+Q96SW2); test: PROTAC activity at STAT1/CRBN in human PBMC cells assessed as reduction in STAT1 level at 10 uM incubated for 18 hrs by Western blot analysis relative to control; assay type: cell-based

Ki [1] [µM]	Ki [2] [µM]	Ki [3] [µM]	SMILES	further results
0.11	2.4	> 5	CC(C)(C)[C@H](NC(=O)c1cc2cc(C(F)(F)P(=O)(O)O)ccc2s1)C(=O)N1CCC[C@H]1C(=O)N1CCOC(c2ccccc2F)C1 (stereo partly specified)	
			NS(=O)(=O)OC[C@@H]1C[C@@H](n2ccc3c(N[C@H]4CCc5ccccc54)ncnc32)C[C@@H]1O	Activity [4]: No effect
1.3	> 5	> 5	CC(C)(C)[C@H](NC(=O)c1cc2cc(C(F)(F)P(=O)(O)O)ccc2s1)C(=O)N1CCC[C@H]1C(=O)N1CCOC(Cc2ccccc2)C1 (stereo partly specified)	
1.1	> 5	> 5	CC(C)(C)[C@H](NC(=O)c1cc2cc(C(F)(F)P(=O)(O)O)ccc2s1)C(=O)N1CCC[C@H]1C(=O)N1CCOC(c2ccncc2)C1 (stereo partly specified)	
0.31	> 5	> 5	CC(C)(C)[C@H](NC(=O)c1cc2cc(C(F)(F)P(=O)(O)O)ccc2s1)C(=O)N1CCC[C@H]1C(=O)N1CCOC(c2cccnc2)C1 (stereo partly specified)	
0.5	0.2	1.8	CC(C)(C)[C@H](NC(=O)c1cc2cc(C(F)(F)P(=O)(O)O)ccc2s1)C(=O)N1CCC[C@H]1C(=O)N1CCOC(C2CCCCC2)C1 (stereo partly specified)	
0.22	4.4	> 5	CC(C)(C)[C@H](NC(=O)c1cc2cc(C(F)(F)P(=O)(O)O)ccc2s1)C(=O)N1CCC[C@H]1C(=O)N1CCOC(c2ccc(F)cc2)C1 (stereo partly specified)	
0.42	> 5	> 5	CC(C)(C)[C@H](NC(=O)c1cc2cc(C(F)(F)P(=O)(O)O)ccc2s1)C(=O)N1CCC[C@H]1C(=O)N1CCOC(c2ccc(F)cc2F)C1 (stereo partly specified)	
			CN1C(=O)CCC(N2Cc3c(C#CCCCCCO[C@H]4C[C@@H](C(=O)N5CCO[C@H](c6ccccc6)C5)N(C(=O)[C@@H](NC(=O)c5cc6cc(C(F)(F)P(=O)(O)O)ccc6s5)C(C)(C)C)C4)cccc3C2=O)C1=O (stereo partly specified)	Activity [5]: No effect; Activity [6]: No effect; Activity [7]: No effect; Activity [8]: No effect; Activity [9]: No effect; Activity [10]: No effect; Activity [11]: inactive; Activity [12]: No effect
0.083	0.8	1.4	CC(C)(C)[C@H](NC(=O)c1cc2cc(C(F)(F)P(=O)(O)O)ccc2s1)C(=O)N1CCC[C@H]1C(=O)N1CCOC(c2ccc3ccccc3c2)C1 (stereo partly specified)	
0.08	1.8	1.4	CC(C)(C)[C@H](NC(=O)c1cc2cc(C(F)(F)P(=O)(O)O)ccc2s1)C(=O)N1CCC[C@H]1C(=O)N1CCSC(c2ccccc2)C1 (stereo partly specified)	
